Measured values as given in paper PMC6983213, “Combining Chalcones with Donepezil to Inhibit Both Cholinesterases and Aβ Fibril Assembly” (Molecules, 2019).
Where “and” joins values, the source holds several entries; their conditions need not be identical. Identical values can stand only once. Like-named read-outs stand apart in the source and are kept apart here.

Experiments:
[1] = molecular target: T1, N-biotinyl-Aβ(1–42) (bioAβ42) oligomer assembly (Homo sapiens, UniProt P05067); experiment: biochemical; details: for EC50: concentration range 50 to 1.56 μM, duplicate, n = 3 independent experiments, ± SDEV; for bioAβ42 oligomer assembly inhibition (in words): 1.56 to 50 μM, alone or in 1:1 / 1:1:1 mixtures
T1 construct: N-biotinyl Aβ(1–42) (bioAβ42) was purchased from Anaspec; purchased Anaspec (Fremont, CA, USA) AS-23523-05
Protocol: We first examined the effect of the synthesized 1,3- and 1,4-chalcone-donepezil hybrids 15a–15f and 16a–16f on the assembly of N-biotinyl-Aβ(1–42) (bioAβ42) monomers into oligomers. We quantified the assembly of bioAβ42 into soluble oligomers by using an ELISA assay in which the soluble oligomers were captured on NeutrAvidin^TM-coated ELISA plates and detected with streptavidin-horseradish peroxidase and colorimetric readout (Figure 3).
The plates were then stored in their blocked form at 4 °C prior to use for the oligomer assembly and dissociation assays.
The assembly of bioAβ42 into soluble oligomers was quantified with an ELISA assay in which the soluble oligomers were captured with the NeutrAvidin^TM coating the ELISA plates. The bound oligomers were detected with streptavidin-horseradish peroxidase (SA-HRP). […] Below, please find the details of the three steps (Steps 1–3) used for the oligomer assembly assay.
Step 1: Preparation of monomeric bioAβ42. For a low background, it was essential to rigorously pretreat the bioAβ42 peptide to convert (disaggregate) the multimeric species that form upon storage in the solid state, or even frozen in 1,1,1,3,3,3-hexafluoroisopropanol (HFIP) to monomers. The required amount of stock bioAβ42 peptide (0.5 mg dissolved at 1 mg/mL in HFIP) was pipetted into a polypropylene microfuge tube, dried to a thin film under a gentle air or N2 stream, and then disaggregated for 10 min at rt in neat trifluoroacetic acid (TFA). After removal of the TFA by drying with an air or N2 stream, DMSO was added to produce a 2.3 μg/mL (50×) stock solution.
Step 2: Assembly of bioAβ42 oligomers. 2 μL of disaggregated monomeric 50× bioAβ42 peptide in DMSO (prepared in Step 1) was pipetted into the bottom of each well of a polypropylene 96-well plate. […] The 96-well plate was sealed and incubated at rt for 30 min without shaking. The bioAβ42 oligomer assembly was stopped by adding 50 μL of 0.3% Tween 20 v/v in distilled H2O.
Step 3: Measurement of bioAβ42 oligomers. […] The 96-well plate was then sealed and incubated for 2 h while shaking at 150 rpm at rt. […] The plate was sealed and incubated for 1 h while shaking at 150 rpm at rt. The plate was washed as previously described, and 100 μL/well of HRP substrate (i.e., 1 mM:0.07 mM/tetramethylbenzidine:H2O2) in 0.2 M citrate buffer, pH 4.0 was added. The plate was incubated at rt for 5 to 10 min and the reaction was stopped by the addition of 100 μL/well of 1% v/v H2SO4. The absorbance of each well was read at 450 nm with a BioTek HT Synergy plate reader.
The effects of various chalcones, donepezil, donepezil analogue, and 1,3-chalcone-donepezil hybrids were tested for their ability to inhibit the bioAβ42 oligomer assembly and dissociation either alone or in combination with each other. The experiments were performed as described in the biotinyl-Aβ(1–42) (bioAβ42) oligomer assembly and dissociation assays section.

[2] = system: ADPBC (Alzheimer's disease PIB binding complex); experiment: 3H-PIB binding competition/titration, ADPBC; parameters: species or system Human; details: compounds at 10 μM (titration 10 to 0.03 μM); 1.2 nM 3H-PIB
Protocol: Human AD brain frontal cortical tissue (from the Sanders-Brown Center on Aging Alzheimer’s Disease Center Brain Bank at the University of Kentucky) was processed as follows.
(§1) The plates were sealed and incubated for 3 h at 22 °C, without shaking, and transferred to a 96-well Millipore Multiscreen HTS Hi Flow FB (GF/B) filter plate, and filtered with a multi-well plate vacuum manifold (Millipore Corporation, Bedford, MA, USA). […] Specific binding of ^3H-PIB was determined by subtracting the non-specific binding determined in the presence of 1 μM BTA-1.
(§2) The titration of compounds with ^3H-PIB bound to Aβ(1–40) and Aβ(1–42) fibrils and AD brain extract (ADPBC) were performed to further determine the competition of our compounds for the ^3H-PIB binding site of the AD brain. The experiments were performed as described in the ^3H-PIB binding assays of Section 3.4.3 with the use of a concentration range of 10 to 0.03 μM for the compounds tested.

[3] = molecular target: EfBChE (BChE from Equus ferus) (Equus caballus, UniProt P81908); experiment: biochemical; assay type: biochemical; details: Ellman's method, pH 8.0, 25 °C, triplicate, ± SDEV; read-out: Inhibition (IC50) of EfBChE
Protocol: (§3) The ChE inhibition assays were performed as previously described. The 1,3- and 1,4-chalcone-donepezil hybrids (0.1 nM to 100 μM) were dissolved in sodium phosphate buffer ((100 μL), 0.1 M, pH 8.0). […] All assays were performed in triplicate. The data was plotted as a sigmoidal curve and IC50 values were calculated using SigmaPlot 14.0 (Systat Software, San Jose, CA, USA).

[4] = molecular target: EeAChE (AChE from Electrophorus electricus) (Electrophorus electricus, UniProt O42275); experiment: biochemical; details: for IC50: Ellman's method, pH 8.0, 25 °C, triplicate, ± SDEV, read-out: Inhibition (IC50) of EeAChE; for selectivity index (SI): based on IC50 values against EeAChE and EfBChE
Protocol: as §3

F42 = Aβ(1–42) fibrils = molecular target: T2, F42 = Aβ(1–42) fibrils (Homo sapiens, UniProt P05067); experiment: 3H-PIB binding competition/titration, Aβ(1–42) fibrils; details: compounds at 10 μM (titration 10 to 0.03 μM); 1.2 nM 3H-PIB
T2 construct: Aβ(1–42) (cat # A-1167-02) purchased from rPeptide; purchased rPeptide (Watkinsville, GA, USA) A-1167-02
Protocol: (§4) Prior to being transferred to screw-top polypropylene vials and being stored at −75 °C, these 1 mg/mL fibril suspensions were further diluted with an equal volume of the buffer solution.
as §1, §2

F40 = Aβ(1–40) fibrils = molecular target: T3, F40 = Aβ(1–40) fibrils (Homo sapiens, UniProt P05067); experiment: 3H-PIB binding competition/titration, Aβ(1–40) fibrils; details: compounds at 10 μM (titration 10 to 0.03 μM); 1.2 nM 3H-PIB
T3 construct: lyophilized NH4OH-treated Aβ(1–40) (cat # A-1157-02); purchased rPeptide (Watkinsville, GA, USA) A-1157-02
Protocol: as §4, §1, §2

[5] = read-out: EC50 against bioAβ42 oligomer assembly

T1 sequence (P05067 672-713): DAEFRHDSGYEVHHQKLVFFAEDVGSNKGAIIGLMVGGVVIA
Chain of EeAChE (AChE from Electrophorus electricus) (O42275 24-633): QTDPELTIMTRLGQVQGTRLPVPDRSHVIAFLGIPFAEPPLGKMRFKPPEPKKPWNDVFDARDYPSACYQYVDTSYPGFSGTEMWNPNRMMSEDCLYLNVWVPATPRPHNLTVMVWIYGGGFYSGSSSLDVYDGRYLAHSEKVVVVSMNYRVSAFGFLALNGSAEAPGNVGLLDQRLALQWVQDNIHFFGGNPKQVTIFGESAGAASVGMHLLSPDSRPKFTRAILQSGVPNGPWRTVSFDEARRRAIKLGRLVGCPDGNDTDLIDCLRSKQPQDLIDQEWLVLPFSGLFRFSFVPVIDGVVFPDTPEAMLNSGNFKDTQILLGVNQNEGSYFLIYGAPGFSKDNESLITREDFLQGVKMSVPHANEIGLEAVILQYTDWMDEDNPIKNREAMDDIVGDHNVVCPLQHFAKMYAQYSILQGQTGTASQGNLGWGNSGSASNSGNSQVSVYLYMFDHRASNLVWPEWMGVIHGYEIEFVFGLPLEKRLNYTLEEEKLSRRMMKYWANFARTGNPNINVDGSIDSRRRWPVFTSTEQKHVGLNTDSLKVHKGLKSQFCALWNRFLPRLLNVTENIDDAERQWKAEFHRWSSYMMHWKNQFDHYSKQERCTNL
Chain of EfBChE (BChE from Equus ferus) (P81908 whole entry): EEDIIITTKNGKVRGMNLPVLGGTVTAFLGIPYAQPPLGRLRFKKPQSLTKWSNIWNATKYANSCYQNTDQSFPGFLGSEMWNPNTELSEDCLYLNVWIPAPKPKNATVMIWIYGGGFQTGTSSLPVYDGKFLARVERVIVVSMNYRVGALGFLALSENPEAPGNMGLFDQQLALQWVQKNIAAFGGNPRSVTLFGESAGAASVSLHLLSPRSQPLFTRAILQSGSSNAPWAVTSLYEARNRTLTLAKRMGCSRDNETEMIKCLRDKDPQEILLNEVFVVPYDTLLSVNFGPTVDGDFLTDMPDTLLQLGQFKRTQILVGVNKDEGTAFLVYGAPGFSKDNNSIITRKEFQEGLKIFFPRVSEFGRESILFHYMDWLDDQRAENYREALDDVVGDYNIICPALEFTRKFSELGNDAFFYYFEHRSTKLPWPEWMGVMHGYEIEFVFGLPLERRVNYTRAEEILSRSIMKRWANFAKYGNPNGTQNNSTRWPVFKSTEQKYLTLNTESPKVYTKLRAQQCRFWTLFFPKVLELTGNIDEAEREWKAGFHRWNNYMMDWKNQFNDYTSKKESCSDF
T2 sequence (P05067 672-713): as the sequence (P05067 672-713) above
T3 sequence (P05067 672-711): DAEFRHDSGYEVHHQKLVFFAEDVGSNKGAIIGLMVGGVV

## CN(C)c1ccc(/C=C/C(=O)c2ccc(O)cc2)cc1 [compound 6, (E)-3-(4-(Dimethylamino)Phenyl)-1-(4-Hydroxyphenyl)Prop-2-En-1-One]
[1]; [5]
  EC50: > 50000 nM

## COc1cc2c(cc1OCCCCCCCCCCCCOc1ccc(C(=O)/C=C/c3ccc(N(C)C)cc3)cc1)C(=O)C(CC1CCN(Cc3ccccc3)CC1)C2 (centres unmarked) [16f, (E)-2-((1-Benzylpiperidin-4-Yl)Methyl)-6-((12-(4-(3-(4-(Dimethylamino)Phenyl)Acryloyl)Phenoxy)Dodecyl)Oxy)-5-Methoxy-2,3-Dihydro-1H-Inden-1-One]
[2]
  displacement of 3H-PIB from ADPBC (in words): ADPBC affinity comparable to that of 16a
[1]
  bioAβ42 oligomer assembly inhibition (in words): did not prevent bioAβ42 oligomerization
[1]; [5]
  EC50: 24100 nM and > 12000 nM
[3]
  IC50: > 100000 nM
[4]
  IC50: > 100000 nM

## COc1cc2c(cc1OCCCCCCCCOc1cccc(C(=O)/C=C/c3ccc(N(C)C)cc3)c1)C(=O)C(CC1CCN(Cc3ccccc3)CC1)C2 (centres unmarked) [15d, (E)-2-((1-Benzylpiperidin-4-Yl)Methyl)-6-((8-(3-(3-(4-(Dimethylamino)Phenyl)Acryloyl)Phenoxy)Octyl)Oxy)-5-Methoxy-2,3-Dihydro-1H-Inden-1-One]
[1]
  bioAβ42 oligomer assembly inhibition (in words): better inhibition of bioAβ42 oligomer assembly
[1]; [5]
  EC50: 9670 ± 1150 nM
[3]
  IC50: ~2000 nM
[4]
  IC50: 1220 ± 130 nM
  selectivity index (SI): ≈1.6

## COc1cc2c(cc1OCCCCCCCCCCCCOc1cccc(C(=O)/C=C/c3ccc(N(C)C)cc3)c1)C(=O)C(CC1CCN(Cc3ccccc3)CC1)C2 (centres unmarked) [15f, (E)-2-((1-Benzylpiperidin-4-Yl)Methyl)-6-((12-(3-(3-(4-(Dimethylamino)Phenyl)Acryloyl)Phenoxy)Dodecyl)Oxy)-5-Methoxy-2,3-Dihydro-1H-Inden-1-One]
[1]
  bioAβ42 oligomer assembly inhibition (in words): did not prevent bioAβ42 oligomerization
[1]; [5]
  EC50: 45300 nM and > 12000 nM
[3]
  IC50: > 100000 nM
[4]
  IC50: 1670 ± 800 nM
  selectivity index (SI): >60

## COc1cc2c(cc1OCCCCOc1ccc(C(=O)/C=C/c3ccc(N(C)C)cc3)cc1)C(=O)C(CC1CCN(Cc3ccccc3)CC1)C2 (centres unmarked) [16b, (E)-2-((1-Benzylpiperidin-4-Yl)Methyl)-6-(4-(4-(3-(4-(Dimethylamino)Phenyl)Acryloyl)Phenoxy)Butoxy)-5-Methoxy-2,3-Dihydro-1H-Inden-1-One]
[1]
  bioAβ42 oligomer assembly inhibition (in words): better inhibition of bioAβ42 oligomer assembly
[1]; [5]
  EC50: 2000 ± 200 nM
[3]
  IC50: ~500 nM
[4]
  IC50: 140 ± 20 nM
  selectivity index (SI): ≈3.6

## COc1cc2c(cc1OCCCCCCCCCCOc1cccc(C(=O)/C=C/c3ccc(N(C)C)cc3)c1)C(=O)C(CC1CCN(Cc3ccccc3)CC1)C2 (centres unmarked) [15e, (E)-2-((1-Benzylpiperidin-4-Yl)Methyl)-6-((10-(3-(3-(4-(Dimethylamino)Phenyl)Acryloyl)Phenoxy)Decyl)Oxy)-5-Methoxy-2,3-Dihydro-1H-Inden-1-One]
[1]
  bioAβ42 oligomer assembly inhibition (in words): did not prevent bioAβ42 oligomerization
[1]; [5]
  EC50: 31700 nM and > 12000 nM
[3]
  IC50: ~10000 nM
[4]
  IC50: 1820 ± 450 nM
  selectivity index (SI): ≈5.5

## COc1cc2c(cc1OCCOc1ccc(C(=O)/C=C/c3ccc(N(C)C)cc3)cc1)C(=O)C(CC1CCN(Cc3ccccc3)CC1)C2 (centres unmarked) [16a, (E)-2-((1-Benzylpiperidin-4-Yl)Methyl)-6-(2-(4-(3-(4-(Dimethylamino)Phenyl)Acryloyl)Phenoxy)Ethoxy)-5-Methoxy-2,3-Dihydro-1H-Inden-1-One]
[1]
  bioAβ42 oligomer assembly inhibition (in words): better inhibition of bioAβ42 oligomer assembly
[1]; EC50 against bioAβ42 oligomer assembly
  EC50: 9370 ± 2100 nM
F42 = Aβ(1–42) fibrils
  displacement of 3H-PIB from F42 (in words): better affinity for F40 and F42 than 16b, 16c, 16d, 16e, and 16f
[3]
  IC50: ~100 nM
[4]
  IC50: 70 ± 10 nM
  selectivity index (SI): ≈1.4
F40 = Aβ(1–40) fibrils
  displacement of 3H-PIB from F40 (in words): better affinity for F40 and F42 than 16b, 16c, 16d, 16e, and 16f

## COc1cc2c(cc1OCCCCCCOc1cccc(C(=O)/C=C/c3ccc(N(C)C)cc3)c1)C(=O)C(CC1CCN(Cc3ccccc3)CC1)C2 (centres unmarked) [15c, (E)-2-((1-Benzylpiperidin-4-Yl)Methyl)-6-((6-(3-(3-(4-(Dimethylamino)Phenyl)Acryloyl)Phenoxy)Hexyl)Oxy)-5-Methoxy-2,3-Dihydro-1H-Inden-1-One]
[1]
  bioAβ42 oligomer assembly inhibition (in words): better inhibition of bioAβ42 oligomer assembly
[1]; [5]
  EC50: 8670 ± 150 nM
[3]
  IC50: ~4000 nM
[4]
  IC50: 1220 ± 180 nM
  selectivity index (SI): ≈3.3

## COc1cc2c(cc1OCCCCCCCCCCOc1ccc(C(=O)/C=C/c3ccc(N(C)C)cc3)cc1)C(=O)C(CC1CCN(Cc3ccccc3)CC1)C2 (centres unmarked) [16e, (E)-2-((1-Benzylpiperidin-4-Yl)Methyl)-6-((10-(4-(3-(4-(Dimethylamino)Phenyl)Acryloyl)Phenoxy)Decyl)Oxy)-5-Methoxy-2,3-Dihydro-1H-Inden-1-One]
[2]
  displacement of 3H-PIB from ADPBC (in words): ADPBC affinity comparable to that of 16a
[1]
  bioAβ42 oligomer assembly inhibition (in words): did not prevent bioAβ42 oligomerization
[1]; [5]
  EC50: 9730 ± 550 nM
[3]
  IC50: ~5000 nM
[4]
  IC50: 1380 ± 180 nM

## COc1cc2c(cc1OCCCCCCCCOc1ccc(C(=O)/C=C/c3ccc(N(C)C)cc3)cc1)C(=O)C(CC1CCN(Cc3ccccc3)CC1)C2 (centres unmarked) [16d, (E)-2-((1-Benzylpiperidin-4-Yl)Methyl)-6-((8-(4-(3-(4-(Dimethylamino)Phenyl)Acryloyl)Phenoxy)Octyl)Oxy)-5-Methoxy-2,3-Dihydro-1H-Inden-1-One]
[1]
  bioAβ42 oligomer assembly inhibition (in words): better inhibition of bioAβ42 oligomer assembly
[1]; [5]
  EC50: 4130 ± 150 nM
[3]
  IC50: ~1000 nM
[4]
  IC50: 520 ± 60 nM
  selectivity index (SI): ≈1.9

## COc1cc2c(cc1OCCCCCCOc1ccc(C(=O)/C=C/c3ccc(N(C)C)cc3)cc1)C(=O)C(CC1CCN(Cc3ccccc3)CC1)C2 (centres unmarked) [16c, (E)-2-((1-Benzylpiperidin-4-Yl)Methyl)-6-((6-(4-(3-(4-(Dimethylamino)Phenyl)Acryloyl)Phenoxy)Hexyl)Oxy)-5-Methoxy-2,3-Dihydro-1H-Inden-1-One]
[1]
  bioAβ42 oligomer assembly inhibition (in words): better inhibition of bioAβ42 oligomer assembly
[1]; [5]
  EC50: 2600 ± 460 nM
[3]
  IC50: ~600 nM
[4]
  IC50: ~500 nM
  selectivity index (SI): ≈1.2
